System: yeast genes (expressed mRNA)
Test: DNA chip measurement of expressed mRNA of yeast genes after culture with a toxic chemical substance
Type: cell-based, Saccharomyces cerevisiae S288C
Description: Yeast (Saccharomyces cerevisiae S288C (a SUC2mal mel gap2 CUP1)) were cultured at 25° C. on YPD medium (yeast extract 1%, polypeptone 2%, glucose 2%). One of toxic chemical substances was added to the cell at logarithmic growth phase, and the cell was further cultured for two hours. Cell was cultured without any chemical substance in the same condition, and was used as a control. Concentrations of the chemical substances were defined to inhibit the growth of the yeast but not lead to death.
After the completion of cultivation, the culture was centrifuged to collect the cells. To the cells, sodium acetate buffer (50 mM sodium acetate, 10 mM EDTA, 1% SDS) was added, and the mixture was shaken at 65° C. for five minutes, followed by returning to room temperature, and obtaining the supernatant, which procedure was repeated two times. To the supernatant, ½ amount of a solution of phenol/chloroform (1:1) was added, and the mixture was centrifuged to give a supernatant, an equal amount of chloroform was added, and the mixture was centrifuged to give a supernatant. To the supernatant, an equal amount of isopropanol containing 0.3 M sodium acetate was added, and the mixture was allowed to stand at room temperature for 30 minutes, after which the mixture was centrifuged to give sediment of the whole RNAs. Seventy % ethanol was added to the sediment, and the mixture was again centrifuged to give sediment, which was then dried and dissolved in water. mRNA was isolated from the whole RNAs as followings. In view of the fact that a poly A chain is attached to the 3′ terminus of mRNA, a polynucleotide having a poly T structure which was immobilized on the surface of latex beads was used to trap the mRNA, and then the mRNA was washed and eluted with spine column (Oligotex-dT30<Super>mRNA Purification Kit, Takara). Reverse transcription of the mRNA was conducted with a reverse transcriptase (Super Script II Reverse Transcriptase; catalogue No. 18064-014, GibcoBRL) using fluorescence-labeled nucleotides to give cDNAs that were introduced with Cy3-dUTP or Cy5-dUTP during the reverse transcription.
The labeled cDNAs were dissolved in TE buffer (10 mM Tris-HCl/1 mM EDTA, pH 8.0), and the solution was dropped on the DNA chip containing the whole genes of yeast (DNA Chip Research Inc. Japan) so that the cDNAs were hybridized on the DNA chip at 65° C. for over 12 hours. The fluoresces intensity of the DNA chip was read with a scanner, and the ratio relative to the fluorescence intensity resulting from the absence of chemical substance was estimated as the following, which is shown in Tables 1 to 9.
In the Tables, “Intensity” indicated in the rightmost column is a value of the level of expressed mRNA of each gene in control cells as divided by the average level of the expressions of the whole genes. A gene of which mRNA level is lower in control, and is higher in cases of addition of chemical substance, is especially useful in the detection of toxic substances.
Here, when a ratio of an amount of mRNA expressed in the presence of the chemical substance to an amount of mRNA expressed in the absence of the chemical substance is two or more, then it is considered significant.

Question: What does the source list for `CCCCCCCCCCCCOS(=O)(=O)[O-].[Na+]` [(18), Sodium lauryl sulfate]?
Answer: The level of expressed mRNA in the presence of chemical substance/The level of expressed mRNA in the absence of chemical substance (yeast gene YJR054W, cultured two hours with substance): 0.9; The level of expressed mRNA in the presence of chemical substance/The level of expressed mRNA in the absence of chemical substance (yeast gene YKL034W, cultured two hours with substance): 1.2; The level of expressed mRNA in the presence of chemical substance/The level of expressed mRNA in the absence of chemical substance (yeast gene YKL071W, cultured two hours with substance): 0.9; The level of expressed mRNA in the presence of chemical substance/The level of expressed mRNA in the absence of chemical substance (yeast gene YKL086W, cultured two hours with substance): 1.0; The level of expressed mRNA in the presence of chemical substance/The level of expressed mRNA in the absence of chemical substance (yeast gene YKL151C, cultured two hours with substance): 1.8; The level of expressed mRNA in the presence of chemical substance/The level of expressed mRNA in the absence of chemical substance (yeast gene YKL153W, cultured two hours with substance): 1.3; The level of expressed mRNA in the presence of chemical substance/The level of expressed mRNA in the absence of chemical substance (yeast gene YKL195W, cultured two hours with substance): 1.6; The level of expressed mRNA in the presence of chemical substance/The level of expressed mRNA in the absence of chemical substance (yeast gene YKR049C, cultured two hours with substance): 3.3; The level of expressed mRNA in the presence of chemical substance/The level of expressed mRNA in the absence of chemical substance (yeast gene YKR091W, cultured two hours with substance): 1.3; The level of expressed mRNA in the presence of chemical substance/The level of expressed mRNA in the absence of chemical substance (yeast gene YLL056C, cultured two hours with substance): 2.5; The level of expressed mRNA in the presence of chemical substance/The level of expressed mRNA in the absence of chemical substance (yeast gene YLR008C, cultured two hours with substance): 4.9; The level of expressed mRNA in the presence of chemical substance/The level of expressed mRNA in the absence of chemical substance (yeast gene YLR031W, cultured two hours with substance): 1.2; The level of expressed mRNA in the presence of chemical substance/The level of expressed mRNA in the absence of chemical substance (yeast gene YLR046C (detoxification protein gene)): 5.4; The level of expressed mRNA in the presence of chemical substance/The level of expressed mRNA in the absence of chemical substance (yeast gene YLR054C, cultured two hours with substance): 1.1; The level of expressed mRNA in the presence of chemical substance/The level of expressed mRNA in the absence of chemical substance (yeast gene YLR149C, cultured two hours with substance): 3.0; The level of expressed mRNA in the presence of chemical substance/The level of expressed mRNA in the absence of chemical substance (yeast gene YLR152C, cultured two hours with substance): 1.8; The level of expressed mRNA in the presence of chemical substance/The level of expressed mRNA in the absence of chemical substance (yeast gene YLR194C, cultured two hours with substance): 0.9; The level of expressed mRNA in the presence of chemical substance/The level of expressed mRNA in the absence of chemical substance (yeast gene YLR324W, cultured two hours with substance): 1.2; The level of expressed mRNA in the presence of chemical substance/The level of expressed mRNA in the absence of chemical substance (yeast gene YLR327C): 5.3; The level of expressed mRNA in the presence of chemical substance/The level of expressed mRNA in the absence of chemical substance (yeast gene YLR346C, cultured two hours with substance): 7.8; The level of expressed mRNA in the presence of chemical substance/The level of expressed mRNA in the absence of chemical substance (yeast gene YLR350W, cultured two hours with substance): 1.1; The level of expressed mRNA in the presence of chemical substance/The level of expressed mRNA in the absence of chemical substance (yeast gene YLR387C, cultured two hours with substance): 1.4; The level of expressed mRNA in the presence of chemical substance/The level of expressed mRNA in the absence of chemical substance (yeast gene YLR460C, cultured two hours with substance): 1.1; The level of expressed mRNA in the presence of chemical substance/The level of expressed mRNA in the absence of chemical substance (yeast gene YML117W, cultured two hours with substance): 1.3; The level of expressed mRNA in the presence of chemical substance/The level of expressed mRNA in the absence of chemical substance (yeast gene YML128C, cultured two hours with substance): 5.5; The level of expressed mRNA in the presence of chemical substance/The level of expressed mRNA in the absence of chemical substance (yeast gene YMR009W, cultured two hours with substance): 2.5; The level of expressed mRNA in the presence of chemical substance/The level of expressed mRNA in the absence of chemical substance (yeast gene YMR067C, cultured two hours with substance): 1.0; The level of expressed mRNA in the presence of chemical substance/The level of expressed mRNA in the absence of chemical substance (yeast gene YMR090W, cultured two hours with substance): 2.8; The level of expressed mRNA in the presence of chemical substance/The level of expressed mRNA in the absence of chemical substance (yeast gene YMR095C, cultured two hours with substance): 1.0; The level of expressed mRNA in the presence of chemical substance/The level of expressed mRNA in the absence of chemical substance (yeast gene YMR097C, cultured two hours with substance): 1.8; The level of expressed mRNA in the presence of chemical substance/The level of expressed mRNA in the absence of chemical substance (yeast gene YMR102C, cultured two hours with substance): 2.8; The level of expressed mRNA in the presence of chemical substance/The level of expressed mRNA in the absence of chemical substance (yeast gene YMR107W, cultured two hours with substance): 8.1; The level of expressed mRNA in the presence of chemical substance/The level of expressed mRNA in the absence of chemical substance (yeast gene YMR180C, cultured two hours with substance): 1.7; The level of expressed mRNA in the presence of chemical substance/The level of expressed mRNA in the absence of chemical substance (yeast gene YMR184W, cultured two hours with substance): 2.0; The level of expressed mRNA in the presence of chemical substance/The level of expressed mRNA in the absence of chemical substance (yeast gene YMR191W, cultured two hours with substance): 2.1; The level of expressed mRNA in the presence of chemical substance/The level of expressed mRNA in the absence of chemical substance (yeast gene YMR295C, cultured two hours with substance): 3.4; The level of expressed mRNA in the presence of chemical substance/The level of expressed mRNA in the absence of chemical substance (yeast gene YMR316W, cultured two hours with substance): 6.4; The level of expressed mRNA in the presence of chemical substance/The level of expressed mRNA in the absence of chemical substance (yeast gene YNL044W, cultured two hours with substance): 3.4; The level of expressed mRNA in the presence of chemical substance/The level of expressed mRNA in the absence of chemical substance (yeast gene YNL074C, cultured two hours with substance): 1.3
